Consider one sequence from patent US10921324B2, “Compositions and methods related to the methylation of histone H1.0 protein” (Aelan Cell Technologies, Inc., priority 2016, dated 2021).

The test system of experiment [1] is G9A methyltransferase. Put plainly: In vitro methylation of unmodified H1.0 peptide with G9A, products by LC-MS. The experiment is classed as biochemical. As for the experimental part:
In order to identify the precise sites of methylation by G9A and GLP methyltransferases on histone H1.0, in vitro methylation assays were performed and subsequently analyzed by Liquid Chromatography and High-resolution Mass Spectrometry (LC-MS) analysis. Methylation reactions were set up using either G9A methyltransferase (NEB, M0235S, Lot #0031201) or GLP methyltransferase (Cayman Chemical, 10755). The methyl donor in each reaction was unlabeled S-Adenosyl-L-Methionine (NEB, B9003S). The H1.0 substrate in each reaction was either unmodified H1.0 peptide labeled with biotin (ThermoFisher Scientific, Biotin-[…] (SEQ ID NO:69)), di-methylated H1.0 peptide (ThermoFisher Scientific, Biotin-[…]^(me2)PK (SEQ ID NO:70)), or full-length recombinant human H1.0 (NEB, M2501S). […]
For the Liquid Chromatography and High-resolution Mass Spectrometry (LC-MS) analysis, samples were prepared as described above and about 1 μg o the product was injected onto a Thermo Scientific Easy nLC system configured with a 10 cm×100 um trap column and a 25 cm×100 um ID resolving column. […] This ensured optimal full-scan data for quantification. […]
Protein identification was performed using Thermo Scientific Proteome Discoverer version 1.4 (including Sequest and Percolator algorithms) using RefSeqHuman sequence database. […] Protein quantification was performed using Pinpoint version 1.4 software. The Pinpoint quantification workflow included importing the Proteome Discoverer .msf files as spectral libraries. Identified peptides were subsequently quantified in MS .raw files using the Pinpoint peak finding, chromatographic alignment and area calculation algorithms.
In order to identify the precise locations of G9A methylation on unmodified H1.0 peptide ([…] (SEQ ID NO:36)), a methylation reaction was set up and the products identified by LC-MS. […] The methylation reaction was subsequently analyzed by LC-MS, and each spectral peak (corresponding to a peptide species in the final reaction) was identified and quantified using spectral counts. […]

In experiment [2] the test system is G9A methyltransferase. Nature of the experiment: Radiolabel in vitro methylation assay of H1.0 peptide (autoradiography). The experiment is classed as biochemical. The conditions noted are these: 10U G9A, S-[Methyl-3H] SAM, 37° C. 1 hour. Here is the method:
In order to visualize methylation of H1.0 peptide by G9A methyltransferase in vitro, a methylation assay was performed incorporating a radiolabelled methyl donor, which allows for visualization of methylated peptide on a gel after autoradiography exposure. The following methylation reaction was set up in a 1.5 ml tube: 1×HMT reaction buffer (50 mM Tris-HCl, 5 mM MgCl2, 4 mM dithiothreitol, pH 9.0), 10U G9A Methyltransferase (NEB, M0235S, Lot #0031201), 3.2 mM Adenosyl-L-Methionine, S-[Methyl-3H] (Perkin Elmer, NET155H, Lot #1664720), 10 μg H1.0 peptide (ThermoFisher Scientific, Biotin-[…] (SEQ ID NO:69)), final volume 10 μl. A control reaction as above but without H1.0 peptide was also created. Reactions were incubated in a thermocycler at 37° C. for 1 hour. Reactions were stopped by incubating on ice for 5 minutes, and subsequently resolved on a 16.5% Tricine gel (BioRad, 4563063). Gels were soaked in 30% methanol, 5% glycerol for 30 minutes before vacuum drying at RT for 24 hours. Autoradiography analysis of dried gels with a phosphoimager (Molecular Dynamics) was then performed to assess effective methylation of H1.0 peptide with methyl-3H groups by the G9A methyltransferase. (Example 1, FIG. 8A)
The methylation reaction was subsequently resolved on a gel and visualized via autoradiography. […] A control reaction lacking H1.0 peptide yielded no tritium-labeled products.

Ends that are not written are not given here.

Sequence of G9A methyltransferase (Q9Z148 969-1263 limits assumed): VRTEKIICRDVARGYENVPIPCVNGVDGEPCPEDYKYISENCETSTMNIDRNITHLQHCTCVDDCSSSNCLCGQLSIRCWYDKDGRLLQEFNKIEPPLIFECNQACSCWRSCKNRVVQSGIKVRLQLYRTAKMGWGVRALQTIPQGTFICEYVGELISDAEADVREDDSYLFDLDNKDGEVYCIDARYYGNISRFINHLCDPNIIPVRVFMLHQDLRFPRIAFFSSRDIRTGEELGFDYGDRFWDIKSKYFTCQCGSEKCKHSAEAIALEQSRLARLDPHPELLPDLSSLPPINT

“AKPVKASKPKKAKPVKPK (not fully specified (N-terminus); listed as Homo sapiens) [unmethylated H1.0 peptide, unmodified H1.0 peptide substrate for in vitro methylation]”: the “sites of methylation by G9A on the peptide” value with G9A methyltransferase [1] (LC-MS) is listed as “dimethylates lysine K180 but not other lysines (K166, K174, K175 or K177)”. Moreover, in the experiment on G9A methyltransferase [1] (LC-MS spectral counts, 10U G9A, 3.2 mM S-Adenosyl-L-Methionine, 37° C. 1 hour), the “H1.0K180 dimethylated, % of all peptides” value was determined as 99.9%. For the same sequence, the estimated methylation efficiency result in the experiment on G9A methyltransferase [1] (dimethylation of K180 by G9A) was “about 99%”. The “methylation of H1.0 peptide by G9A (tritium-labeled methyl groups, band at 4 kDa)” value in the experiment with G9A methyltransferase [2] is listed as “capable of methylating an H1.0 peptide”.
